This note sets out measurements from the OligoGym collection.

The target of data set [1] is IRF5. The following applies: ASO.
For data set [2], the target named is DGAT2. The following applies: ASO.

“And” between values parts separate entries of the source, which are not always exact repeats. Equal entries are not always repeated. After the bases stand the sugars from the 5' end (letter, count) and the backbone: PS all phosphorothioate, else s phosphorothioate and o phosphodiester by linkage. Methylation of C is not given here. e = 2'-O-(2-methoxyethyl) (MOE); k = constrained ethyl (cEt); d = 2'-deoxy (DNA)

Consider AAACCATTCTATGCCT (sugars k3 d10 k3, PS), for which, in data set [1] (KARPAS-229, 4 µM), the target mRNA inhibition worked out at 0%.
Still for that read-out and setting: the result for AAAGGGTGAGTAGGAC (sugars k3 d10 k3, PS) reads 24%.
The sequence AACCATTCTATGCCTT (sugars k3 d10 k3, PS) had a target mRNA inhibition in data set [1] (KARPAS-229, 4 µM) of 33%.
Still for that read-out and setting: the result for “AAGGGCACAGCGCAGG (sugars kkddddddddddkeke, PS)” reads 0%.
Same read-out and setting: the result for “AAGGGCACAGCGCAGG (sugars kkddddddddkekekk, PS)” reads 0%.
Same read-out and setting: the result for “AAGGGCACAGCGCAGG (sugars kkkddddddddkdkdk, PS)” reads 12%; that for ACATCCATCAATGAGG (sugars k3 d10 k3, PS), 0%; that for “ACATCTCCACATCAGT (sugars kkddddddddddkeke, PS)”, 36%.
As to “ACATCTCCACATCAGT (sugars kkddddddddkekekk, PS)”, the target mRNA inhibition in data set [1] (KARPAS-229, 4 µM) is 15%.
Same read-out and setting: in the case of “ACCACTGTGTACCCCA (sugars kdddddddddkekeke, PS)” it was 40%.
In the case of “ACCACTGTGTACCCCA (sugars kkddddddddddkeke, PS)”, the target mRNA inhibition is 26% in data set [1] (KARPAS-229, 0.44444 µM); 38% in data set [1] (KARPAS-229, 1.33333 µM); 66% and 56% in data set [1] (KARPAS-229, 4 µM); 70% in data set [1] (KARPAS-229, 12 µM).
Turning to “ACCACTGTGTACCCCA (sugars kkkddddddddkekek, PS)”, in data set [1] (KARPAS-229, 4 µM), the target mRNA inhibition amounted to 6%.
The same measure, in the same setting: in the case of “ACTGACACAGGCGGAT (sugars kkdddddddddkdkdk, PS)” it was 6%.
Still for that read-out and setting: the result for “ACTGACACAGGCGGAT (sugars kkddddddddkekekk, PS)” reads 0%.
The sequence AGACGAGCAAAGGGTG (sugars k3 d10 k3, PS) showed a target mRNA inhibition in data set [1] (KARPAS-229, 4 µM) of 35%.
Still for that read-out and setting: in the case of “AGATGGTGTTATCTCC (sugars kddddddddddkekek, PS)” it was 0%; in that of “AGATGGTGTTATCTCC (sugars kkdddddddddkekek, PS)”, 0%.
Turning to “AGATGGTGTTATCTCC (sugars kkddddddddkekekk, PS)”, the target mRNA inhibition in data set [1] (KARPAS-229, 4 µM) came to 0%.
Regarding “AGATGGTGTTATCTCC (sugars kkkddddddddkekek, PS)”, in data set [1] (KARPAS-229, 4 µM), the target mRNA inhibition came to 0%.
As for AGCTTGGTCTTGACCT (sugars k3 d10 k3, PS), the target mRNA inhibition in data set [1] (KARPAS-229, 0.44444 µM) came to 33%; in data set [1] (KARPAS-229, 1.33333 µM), 41%; in data set [1] (KARPAS-229, 12 µM), 55%.
“AGCTTGGTCTTGACCT (sugars kekdddddddddeekk, PS)” registered a target mRNA inhibition in data set [1] (KARPAS-229, 4 µM) of 38%.
Turning to “AGCTTGGTCTTGACCT (sugars kkddddddddkekekk, PS)”, the target mRNA inhibition in data set [1] (KARPAS-229, 4 µM) is 0%.
Still for that read-out and setting: the result for “AGCTTGGTCTTGACCT (sugars kkkddddddddkdkdk, PS)” reads 12%; that for “AGGAAGTGAGTCTCAA (sugars kekdddddddddeekk, PS)”, 43%; that for “AGGAAGTGAGTCTCAA (sugars kkddddddddddkeke, PS)”, 39%.
On the same count and under the same terms, in the case of “AGGAAGTGAGTCTCAA (sugars kkdddddddddkekek, PS)” it was 42%; in that of “AGGAAGTGAGTCTCAA (sugars kkkddddddddkdkdk, PS)”, 40%.
With AGGAGTGAGACGAGCA (sugars k3 d10 k3, PS), the target mRNA inhibition in data set [1] (KARPAS-229, 0.44444 µM) is 12%; in data set [1] (KARPAS-229, 1.33333 µM), 41%; in data set [1] (KARPAS-229, 4 µM) it was 56% and 58%; in data set [1] (KARPAS-229, 12 µM) it was 70%.
In data set [1] (KARPAS-229, 4 µM), “AGGAGTGAGACGAGCA (sugars kekdddddddddeekk, PS)” registered a target mRNA inhibition of 22%.
On the same count and under the same terms, the result for “AGGAGTGAGACGAGCA (sugars kkdddddddddkekek, PS)” reads 36%.
Same read-out and setting: in the case of “AGGAGTGAGACGAGCA (sugars kkkdddddddddkeke, PS)” it was 42%; in that of “AGGTTCTTGGACTCTC (sugars k2 d8 e4 k2, PS)”, 17%; in that of “AGGTTCTTGGACTCTC (sugars k2 d9 e3 k2, PS)”, 0%.
Same read-out and setting: the result for “AGGTTCTTGGACTCTC (sugars kddddddddddkekek, PS)” reads 34%.
In turn, “AGGTTCTTGGACTCTC (sugars kkdddddddddkekek, PS)” returned a target mRNA inhibition in data set [1] (KARPAS-229, 4 µM) of 38%.
For the sequence “ATCACCACTGTGTACC (sugars k3 d9 k3 e1, PS)”, the target mRNA inhibition in data set [1] (KARPAS-229, 4 µM) came out at 19%.
Sequence “ATCACCACTGTGTACC (sugars kkdddddddddkekek, PS)” had a target mRNA inhibition in data set [1] (KARPAS-229, 4 µM) of 0%.
The same measure, in the same setting: the result for “ATCACCACTGTGTACC (sugars kkddddddddkekekk, PS)” reads 0%.
For the sequence “TCTCACATGCCTGAGGGCAG (sugars e5 d10 e5, PS)”, the target mRNA inhibition in data set [2] (HepG2, 2.5 µM) worked out at 70%; in data set [2] (HepG2, 10 µM), 82%.
With “TCTGCGCGATTCACTGAGGA (sugars e5 d10 e5, PS)”, the target mRNA inhibition in data set [2] (HepG2, 2.5 µM) turned out to be 64%; in data set [2] (HepG2, 10 µM) it was 84%.
For “TGACCTTGGGATAGTCCCTC (sugars e5 d10 e5, PS)”, in that order: 93% and 89%.
For “TGAGCTCTCAAGTCTTCCTC (sugars e5 d10 e5, PS)”, in that order: 55% and 89%.
As to “TGCACCATAATCTGCACAGG (sugars e5 d10 e5, PS)”, the target mRNA inhibition in data set [2] (HepG2, 2.5 µM) is 75% and 71%; in data set [2] (HepG2, 10 µM) it was 80% and 91%.
In the case of “TGCAGCCTGGACAAGTCCTG (sugars e5 d10 e5, PS)”, the target mRNA inhibition in data set [2] (HepG2, 0.12 µM) came out at 67%.
Consider “TGCCAATGCCTAGGTCA (sugars e3 d10 e4, PS)”, for which the target mRNA inhibition in data set [2] (HepG2, 2.5 µM) is 82% and 74%; in data set [2] (HepG2, 10 µM) it was 70% and 89%.
Turning to “TGCCCTTGCTGTAGGACCCA (sugars e5 d10 e5, PS)”, the target mRNA inhibition is 92% and 79% in data set [2] (HepG2, 2.5 µM); 88% and 95% in data set [2] (HepG2, 10 µM).
For “TGCTGAGCTCATGAGAAGCT (sugars e5 d10 e5, PS)”, the target mRNA inhibition in data set [2] (HepG2, 2.5 µM) is 75% and 57%; in data set [2] (HepG2, 10 µM), 92% and 83%.
As for “TGCTGGATCCAGTGCCCCAT (sugars e5 d10 e5, PS)”, in data set [2] (HepG2, 0.12 µM), the target mRNA inhibition stood at 44%.
As to “TGGACAAGTCATCTTCCAGC (sugars e5 d10 e5, PS)”, the target mRNA inhibition in data set [2] (HepG2, 2.5 µM) was 52%; in data set [2] (HepG2, 10 µM) it was 74%.
With “TGGACAAGTCCTGCCCATCT (sugars e2 d13 e5, PS)”, in data set [2] (HepG2, 0.12 µM), the target mRNA inhibition turned out to be 51%.
“TGGACAAGTCCTGCCCATCT (sugars e3 d14 e3, PS)” showed a target mRNA inhibition in data set [2] (HepG2, 0.12 µM) of 69%.
Turning to “TGGAGCTCAGAGACTCAGCC (sugars e5 d10 e5, PS)”, the target mRNA inhibition in data set [2] (HepG2, 0.12 µM) was determined as 77%; in data set [2] (HepG2, 2.5 µM) it was 19%; in data set [2] (HepG2, 10 µM) it was 70%; in data set [2] (HepG2, 20 µM) it was 46%.
The sequence “TGGATACTCAGAAGAGCAGT (sugars e5 d10 e5, PS)” gave a target mRNA inhibition in data set [2] (HepG2, 0.12 µM) of 37%.
Still for that read-out and setting: the result for “TGGCTGGGAGGAGTCCAGCA (sugars e5 d10 e5, PS)” reads 10%.
With “TGGGAACAGCAGCATCAGCA (sugars e5 d10 e5, PS)”, the target mRNA inhibition is 65% in data set [2] (HepG2, 2.5 µM) and 80% in data set [2] (HepG2, 10 µM).
As to “TGGTATCCAAAGATATAGTT (sugars e5 d10 e5, PS)”, the target mRNA inhibition in data set [2] (HepG2, 0.12 µM) turned out to be 42%.
Same read-out and setting: in the case of “TGGTCAGCAGGTTGTGTGTC (sugars e3 d14 e3, PS)” it was 57%; in that of “TGGTCTTGTGCTTGTCGAAG (sugars e5 d10 e5, PS)”, 41%; in that of “TGGTGATGGGCTTGGAGTAG (sugars e5 d10 e5, PS)”, 28%.
Take “TGTACACTTCATTCTCTCCA (sugars e5 d10 e5, PS)”: the target mRNA inhibition was 41% in data set [2] (HepG2, 2.5 µM) and 87% in data set [2] (HepG2, 10 µM).
For “TGTCCTAGTGCCCCAGGGAG (sugars e5 d10 e5, PS)”, in that order: 48% and 79%.
Consider “TGTCTTCACCAGCTGGATGG (sugars e5 d10 e5, PS)”, for which the target mRNA inhibition in data set [2] (HepG2, 0.12 µM) came out at 55%.
Regarding “TGTGCTCTGTGGGCTCCTCC (sugars e5 d10 e5, PS)”, the target mRNA inhibition is 66% in data set [2] (HepG2, 2.5 µM) and 85% in data set [2] (HepG2, 10 µM).
In data set [2] (HepG2, 0.12 µM), “TGTGCTGCATCCATGTCATC (sugars e5 d10 e5, PS)” had a target mRNA inhibition of 36%.
Sequence “TGTGTCTTCACCAGCTGGAT (sugars e5 d10 e5, PS)” gave a target mRNA inhibition in data set [2] (HepG2, 0.12 µM) of 55%.
On the same count and under the same terms, in the case of “TTATCCTTGAGGGTCTCATA (sugars e5 d10 e5, PS)” it was 45%.
In turn, “TTCACCAGGGCCTCCATGTA (sugars e5 d10 e5, PS)” returned a target mRNA inhibition in data set [2] (HepG2, 0.12 µM) of 20%.
On to “TTCCACTCTTCTGACAGGTC (sugars e5 d10 e5, PS)”, for which the target mRNA inhibition in data set [2] (HepG2, 10 µM) was 89% and 84%.
In data set [2] (HepG2, 0.12 µM), “TTCCCCAGAGCAGCTCTGAG (sugars e5 d10 e5, PS)” showed a target mRNA inhibition of 27%.
For the sequence “TTCGGACCCACTGTGACCTC (sugars e3 d14 e3, PS)”, the target mRNA inhibition in data set [2] (HepG2, 0.12 µM) was determined as 64%.
The same measure, in the same setting: the result for “TTCTGGAACTTCTTCTGGAC (sugars e5 d10 e5, PS)” reads 37%; that for “TTCTGTGGCCTCTGTGCTGA (sugars e5 d10 e5, PS)”, 25%.
On the same count and under the same terms, the result for “TTCTTGCCAGGCATGGAGCT (sugars e5 d10 e5, PS)” reads 54%; that for “TTCTTTTAAATAACCCACAG (sugars e5 d10 e5, PS)”, 8%.
“TTGGTCTTTTTGGCTGCCCT (sugars e5 d10 e5, PS)”: in data set [2] (HepG2, 10 µM), the target mRNA inhibition is 85% and 82%.
With “TTGTACACTTCATTCTCTCC (sugars e5 d10 e5, PS)”, the target mRNA inhibition in data set [2] (HepG2, 2.5 µM) was 37%; in data set [2] (HepG2, 10 µM) it was 84%.
For “TTGTCCTGGTCCCAGTACTT (sugars e5 d10 e5, PS)”, in that order: 68% and 88%.
Consider “TTTCCACTCTTCTGACAGGT (sugars e5 d10 e5, PS)”, for which the target mRNA inhibition is 77% and 69% in data set [2] (HepG2, 2.5 µM); 93% and 92% in data set [2] (HepG2, 10 µM).
In data set [2] (HepG2, 0.12 µM), “TTTCGGACCCACTGTGACCT (sugars e2 d13 e5, PS)” returned a target mRNA inhibition of 68%.
“TTTCGGACCCACTGTGACCT (sugars e3 d14 e3, PS)” came in with a target mRNA inhibition in data set [2] (HepG2, 0.12 µM) of 61%.
